The source of these data is patent US9085576B2 (AMGEN INC., priority 2013, dated 2015).

Counter-ions that a name gives are not always drawn.

In assay [1] the target is Cathepsin D (Cat D) (Homo sapiens (Human), UniProt P07339). Kind of assay: In vitro enzymatic Cathepsin D (Cat D) FRET assay. The conditions noted are these: read-out: CatD IC50. The assay is classed as biochemical.
For assay [2], the system named is Abeta 40. The assay can be described thus: In vivo inhibition of beta-secretase: Abeta 40 reduction in CSF and brain of the rat. The note with it: after 4 hrs; for % reduction of rat CSF levels at 10 pmk / % reduction of rat CSF levels (3 mpk): Abeta 40 in rat CSF; for % reduction of rat CSF levels at 10 pmk / % reduction of rat brain levels at 10 mpk: 10 mpk; for % reduction of rat brain levels at 10 mpk / % reduction of rat brain levels (3 mpk): Abeta 40 in rat brain.
From the text: In Vivo Inhibition of Beta-Secretase
Several animal models, including mouse, rat, dog, and monkey, may be used to screen for inhibition of beta-secretase activity in vivo following administration of a test compound sample. […] A separate group of animals receive 2% hydroxypropyl methylcellulose, 1% Tween80 alone, containing no test compound, and serve as a vehicle-control group. At the end of the test period, animals are sacrificed and brain tissues, plasma or cerebrospinal fluid are collected. […] Homogenates are centrifuged at 355,000 g, 4° C. for 30 minutes. CSF or brain supernatants are then analyzed for the presence of A-beta peptide by specific sandwich ELISA assays based on ECL (Electrochemiluminescence) technology. For example, rat Abeta40 is measured using biotinylated-4G8 (Signet) as a capture antibody and Fab40 (an in-house antibody specific to the C-terminal of Abeta40) as a detection antibody.
Actual vehicles used: Oral: 2% HPMC, 1% Tween80, pH 2.2

Assay [3] addresses BACE (Homo sapiens (Human), UniProt P56817). The assay can be described thus: In vitro BACE cell-based assay (Aβ40 in conditioned medium, sandwich ELISA).
Assay [4] deals with Beta Secretase enzyme (BACE) (Homo sapiens (Human), UniProt P56817). Kind of assay: In vitro enzymatic BACE FRET assay. The note with it: read-out: BACE1 Enzyme assay IC50. The assay is classed as biochemical.
Chain of Beta Secretase enzyme (BACE) (P56817 46-501): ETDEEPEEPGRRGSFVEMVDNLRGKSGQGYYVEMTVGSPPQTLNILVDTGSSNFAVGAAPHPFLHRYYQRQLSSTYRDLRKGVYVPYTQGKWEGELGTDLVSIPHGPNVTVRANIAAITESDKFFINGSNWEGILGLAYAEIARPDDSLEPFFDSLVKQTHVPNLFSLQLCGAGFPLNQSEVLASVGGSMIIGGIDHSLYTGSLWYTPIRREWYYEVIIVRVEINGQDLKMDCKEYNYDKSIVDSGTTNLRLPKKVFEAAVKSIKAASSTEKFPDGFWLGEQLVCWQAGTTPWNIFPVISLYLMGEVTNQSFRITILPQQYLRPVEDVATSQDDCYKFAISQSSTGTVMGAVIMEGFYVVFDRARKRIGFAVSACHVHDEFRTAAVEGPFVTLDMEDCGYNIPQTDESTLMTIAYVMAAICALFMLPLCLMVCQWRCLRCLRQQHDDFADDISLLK

Chain of Cathepsin D (Cat D) (P07339 65-412, species assumed): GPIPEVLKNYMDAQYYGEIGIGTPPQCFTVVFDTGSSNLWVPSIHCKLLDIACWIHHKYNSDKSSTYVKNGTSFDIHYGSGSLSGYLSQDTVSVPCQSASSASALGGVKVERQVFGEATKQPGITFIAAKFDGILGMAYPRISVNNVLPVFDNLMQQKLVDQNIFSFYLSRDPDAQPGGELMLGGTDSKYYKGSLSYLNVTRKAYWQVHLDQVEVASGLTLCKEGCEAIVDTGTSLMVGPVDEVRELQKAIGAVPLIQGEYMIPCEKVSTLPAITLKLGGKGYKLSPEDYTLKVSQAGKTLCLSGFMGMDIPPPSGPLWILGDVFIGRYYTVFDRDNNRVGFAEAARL
Chain of BACE (P56817 46-501, species assumed): as the sequence (P56817 46-501) above

As to `CC#CCOc1cnc(C(=O)Nc2ccc(F)c([C@@]3(C(F)F)N=C(N)O[C@@H]4C[C@@H]43)c2)cn1` [Example 96, N-(3-((1R,5S,6R)-3-amino-5-(difluoromethyl)-2-oxa-4-azabicyclo[4.1.0]hept-3-en-5-yl)-4-fluorophenyl)-5-(but-2-yn-1-yloxy)pyrazine-2-carboxamide trifluoroacetate], the half-inhibitory concentration (IC50) in assay [1] was determined as 467 µM; in assay [3], 0.0033 µM; in assay [4], 0.001 µM. Further, the “% reduction of rat CSF levels at 10 pmk” value in assay [2] is listed as 24%. Also, the “% reduction of rat brain levels at 10 mpk” value (shortened to “% reduction … at 10 mpk”) in assay [2] stood at 1%.

Regarding `NC1=N[C@@](c2cc(NC(=O)c3ccc(Cl)cn3)ccc2Cl)(C(F)F)[C@H]2C[C@H]2O1` [Example 99, N-(3-((1R,5S,6R)-3-amino-5-(difluoromethyl)-2-oxa-4-azabicyclo[4.1.0]hept-3-en-5-yl)-4-chlorophenyl)-5-chloropicolinamide], the figures for the IC50 in assay [1], in assay [3] and in assay [4] were 1050 µM, 0.0195 µM and 0.0227 µM, respectively. In addition, in assay [2], the “% reduction of rat CSF levels at 10 pmk” value came to 63%. Moreover, the “% reduction … at 10 mpk” value in assay [2] came out at 58%.

Turning to `NC1=N[C@](CF)(c2cc(NC(=O)c3ccc(Cl)cn3)ccc2F)[C@H]2C[C@H]2O1` [Example 117, N-(3-((1R,5S,6R)-3-amino-5-(fluoromethyl)-2-oxa-4-azabicyclo[4.1.0]hept-3-en-5-yl)-4-fluorophenyl)-5-chloropicolinamide], the IC50 in assay [1] turned out to be 472 µM; in assay [3], 0.0053 µM; in assay [4], 0.0211 µM. Also, in assay [2], the “% reduction of rat CSF levels at 10 pmk” value was found to be 78%. For the same molecule, the “% reduction … at 10 mpk” value in assay [2] is 71%.

`N#Cc1cnc(C(=O)Nc2ccc(Cl)c([C@@]3(CF)N=C(N)O[C@@H]4C[C@@H]43)c2)c(Cl)c1` [Example 127]: the figures for the IC50 in assay [1], in assay [3] and in assay [4] were 997 µM, 0.0078 µM and 0.0395 µM, respectively. For the same molecule, in assay [2], the “% reduction of rat CSF levels at 10 pmk” value stood at 67%. Further, in assay [2], the “% reduction … at 10 mpk” value is listed as 50%.

On to `COc1ccc(C(=O)Nc2ccc(F)c([C@@]3(C(F)F)N=C(N)O[C@@H]4C[C@@H]43)c2)nc1` [Example 130, N-(3-((1R,5S,6R)-3-amino-5-(difluoromethyl)-2-oxa-4-azabicyclo[4.1.0]hept-3-en-5-yl)-4-fluorophenyl)-5-methoxypicolinamide], for which the IC50 in assay [1] came out at 988 µM; in assay [3], 0.0586 µM; in assay [4] it was 0.0845 µM. In addition, the “% reduction of rat CSF levels at 10 pmk” value in assay [2] worked out at 49%. For the same molecule, in assay [2], the “% reduction … at 10 mpk” value is given as 23%.

Take `NC1=N[C@@](c2cc(NC(=O)c3cnc(OCc4ncco4)cn3)ccc2F)(C(F)F)[C@H]2C[C@H]2O1` [Example 167, N-(3-((1R,5S,6R)-3-amino-5-(difluoromethyl)-2-oxa-4-azabicyclo[4.1.0]hept-3-en-5-yl)-4-fluorophenyl)-5-(oxazol-2-ylmethoxy)pyrazine-2-carboxamide]: the IC50 in assay [1] worked out at 767 µM; in assay [3], 0.0103 µM; in assay [4], 0.0124 µM. Besides, the “% reduction of rat CSF levels at 10 pmk” value in assay [2] was found to be 60%. For the same molecule, in assay [2], the “% reduction … at 10 mpk” value turned out to be 41%.

For the molecule `NC1=N[C@@](c2cc(NC(=O)c3cnc(OCc4cocn4)cn3)ccc2F)(C(F)F)[C@H]2C[C@H]2O1` [Example 174, N-(3-((1R,5S,6R)-3-amino-5-(difluoromethyl)-2-oxa-4-azabicyclo[4.1.0]hept-3-en-5-yl)-4-fluorophenyl)-5-(oxazol-4-ylmethoxy)pyrazine-2-carboxamide], the IC50 in assay [1] turned out to be 925 µM; in assay [3], 0.0186 µM; in assay [4], 0.0233 µM. Besides, in assay [2], the “% reduction of rat CSF levels at 10 pmk” value worked out at 46%. For the same molecule, in assay [2], the “% reduction … at 10 mpk” value amounted to 26%.

For `N#Cc1ccc(C(=O)Nc2ccc(F)c([C@@]3(CF)N=C(N)O[C@@H]4C[C@@H]43)c2)nc1` [Example 192, N-(3-((1R,5S,6R)-3-amino-5-(fluoromethyl)-2-oxa-4-azabicyclo[4.1.0]hept-3-en-5-yl)-4-fluorophenyl)-5-cyanopicolinamide], the IC50 in assay [1] was 591 µM; in assay [3], 0.0079 µM; in assay [4], 0.0256 µM. Besides, the “% reduction of rat CSF levels at 10 pmk” value in assay [2] was 81%. Moreover, in assay [2], the “% reduction … at 10 mpk” value is on record as 71%.

As to `NC1=N[C@](CF)(c2cc(NC(=O)c3ncc(Cl)cc3Cl)ccc2F)[C@H]2C[C@H]2O1` [Example 193], the IC50 amounted to 875 µM in assay [1], 0.0108 µM in assay [3] and 0.0449 µM in assay [4]. Also, in assay [2], the “% reduction of rat CSF levels at 10 pmk” value turned out to be 75%. In addition, in assay [2], the “% reduction … at 10 mpk” value is recorded as 67%.

`CC#CCOc1cnc(C(=O)Nc2ccc(F)c([C@@]3(CF)N=C(N)O[C@@H]4C[C@@H]43)c2)cn1` [Example 199, N-(3-((1R,5S,6R)-3-amino-5-(fluoromethyl)-2-oxa-4-azabicyclo[4.1.0]hept-3-en-5-yl)-4-fluorophenyl)-5-(but-2-yn-1-yloxy)pyrazine-2-carboxamide]: the IC50 worked out at 959 µM in assay [1], 0.0005 µM in assay [3] and 0.0022 µM in assay [4]. In addition, the “% reduction of rat CSF levels at 10 pmk” value in assay [2] is reported as 62%. The “% reduction … at 10 mpk” value in assay [2] turned out to be 42%.

As to `N#Cc1cnc(C(=O)Nc2ccc(F)c([C@@]3(CF)N=C(N)O[C@@H]4C[C@@H]43)c2)c(Cl)c1` [Example 228, N-(3-((1R,5S,6R)-3-amino-5-(fluoromethyl)-2-oxa-4-azabicyclo[4.1.0]hept-3-en-5-yl)-4-fluorophenyl)-3-chloro-5-cyanopicolinamide], the IC50 in assay [1] turned out to be 1010 µM; in assay [3], 0.0059 µM; in assay [4], 0.0419 µM. For the same molecule, the “% reduction of rat CSF levels at 10 pmk” value in assay [2] worked out at 54%. In assay [2], the “% reduction … at 10 mpk” value is listed as 33%.

Regarding `COc1cnc(C(=O)Nc2ccc(F)c([C@@]3(CF)N=C(N)O[C@@H]4C[C@@H]43)c2)c(Cl)c1` [Example 229, N-(3-((1R,5S,6R)-3-amino-5-(fluoromethyl)-2-oxa-4-azabicyclo[4.1.0]hept-3-en-5-yl)-4-fluorophenyl)-3-chloro-5-methoxypicolinamide], the IC50 worked out at 956 µM in assay [1], 0.0064 µM in assay [3] and 0.0341 µM in assay [4]. For the same molecule, the “% reduction of rat CSF levels at 10 pmk” value in assay [2] is given as 41%. Moreover, the “% reduction … at 10 mpk” value in assay [2] stood at 8%.

Turning to `Cc1cc(OC(F)F)cnc1C(=O)Nc1ccc(F)c([C@@]2(C(F)F)N=C(N)O[C@@H]3C[C@@H]32)c1` [Example 237, N-(3-((1R,5S,6R)-3-amino-5-(difluoromethyl)-2-oxa-4-azabicyclo[4.1.0]hept-3-en-5-yl)-4-fluorophenyl)-5-(difluoromethoxy)-3-methylpicolinamide], the IC50 is 327 µM in assay [1], 0.0323 µM in assay [3] and 0.0377 µM in assay [4]. The “% reduction of rat CSF levels at 10 pmk” value in assay [2] is recorded as 72%. Moreover, the “% reduction … at 10 mpk” value in assay [2] came out at 67%.

As to `NC1=N[C@@](c2cc(NC(=O)c3cnc(OC(F)F)cn3)ccc2F)(C(F)F)[C@H]2C[C@H]2O1` [Example 238, N-(3-((1R,5S,6R)-3-amino-5-(difluoromethyl)-2-oxa-4-azabicyclo[4.1.0]hept-3-en-5-yl)-4-fluorophenyl)-5-(difluoromethoxy) pyrazine-2-carboxamide], the IC50 in assay [1] is 5920 µM; in assay [3] it was 0.0178 µM; in assay [4], 0.0214 µM. Besides, the “% reduction of rat CSF levels at 10 pmk” value in assay [2] stood at 8%. The “% reduction … at 10 mpk” value in assay [2] is 16%.

For `NC1=N[C@](CF)(c2cc(NC(=O)c3ncc(Cl)cc3Cl)ccc2Cl)[C@H]2C[C@H]2O1` [Example 281, N-(3-((1R,5S,6R)-3-amino-5-(fluoromethyl)-2-oxa-4-azabicyclo[4.1.0]hept-3-en-5-yl)-4-chlorophenyl)-3,5-dichloropicolinamide], the IC50 in assay [1] was found to be 2870 µM. In assay [2], the “% reduction of rat CSF levels (3 mpk)” value was 55 (3 mpk) %, the “% reduction of rat CSF levels at 10 pmk” value was determined as 70%, the “% reduction of rat brain levels (3 mpk)” value is reported as 34 (3 mpk) % and the “% reduction … at 10 mpk” value was 72%. Also, inhibition in assay [3] was half-maximal at 0.006 µM (IC50). The IC50 in assay [4] was found to be 0.0441 µM.

With `Cc1cc(C#N)cnc1C(=O)Nc1ccc(Cl)c([C@@]2(CF)N=C(N)O[C@@H]3C[C@@H]32)c1` [Example 283, N-(3-((1R,5S,6R)-3-amino-5-(fluoromethyl)-2-oxa-4-azabicyclo[4.1.0]hept-3-en-5-yl)-4-chlorophenyl)-5-cyano-3-methylpicolinamide], the IC50 in assay [1] came out at 1580 µM. Moreover, in assay [2], the “% reduction of rat CSF levels (3 mpk)” value is reported as 61 (3 mpk) %, the “% reduction of rat CSF levels at 10 pmk” value came out at 75%, the “% reduction of rat brain levels (3 mpk)” value is 44 (3 mpk) % and the “% reduction … at 10 mpk” value is on record as 69%. The IC50 in assay [3] amounted to 0.0075 µM. Besides, in assay [4], the IC50 is 0.031 µM.

In the case of `COc1cnc(C(=O)Nc2cc(C)c(F)c([C@@]3(C(F)F)N=C(N)O[C@@H]4C[C@@H]43)c2)cn1` [Example 299, N-(3-((1R,5S,6R)-3-amino-5-(difluoromethyl)-2-oxa-4-azabicyclo[4.1.0]hept-3-en-5-yl)-4-fluoro-5-methylphenyl)-5-methoxypyrazine-2-carboxamide], the values for the IC50 in assay [1], in assay [3] and in assay [4] were 465 µM, 0.014 µM and 0.0305 µM, respectively. Moreover, in assay [2], the “% reduction of rat CSF levels at 10 pmk” value is listed as 74%. For the same molecule, the “% reduction … at 10 mpk” value in assay [2] is given as 62%.

`Cc1cc(NC(=O)c2ncc(Cl)cc2F)cc([C@@]2(C(F)F)N=C(N)O[C@@H]3C[C@@H]32)c1F` [Example 302, N-(3-((1R,5S,6R)-3-amino-5-(difluoromethyl)-2-oxa-4-azabicyclo[4.1.0]hept-3-en-5-yl)-4-fluoro-5-methylphenyl)-5-chloro-3-fluoropicolinamide]: the IC50 was determined as 811 µM in assay [1], 0.0141 µM in assay [3] and 0.0315 µM in assay [4]. Further, the “% reduction of rat CSF levels at 10 pmk” value in assay [2] amounted to 37%. For the same molecule, in assay [2], the “% reduction … at 10 mpk” value came to 9%.

The term IC50 denotes the concentration that inhibits the measured activity by half.
